Measurements taken from patent US20110104713A1, “PRODUCTS AND PROCESSES FOR MODULATING PEPTIDE-PEPTIDE BINDING DOMAIN INTERACTIONS” (priority 2002, published 2011).
Blank lines part the entries; values can stand above or below the molecule they belong to. Non-standard residues stand in square brackets, D forms with d. Residues, ends and D or L forms follow the SMILES beside them. No end group written: not given here. pT = C[C@@H](OP(=O)(O)O)[C@H](N)C(=O)O; pS = N[C@@H](COP(=O)(O)O)C(=O)O

Key:
Format in all cases: binding
[1] = target: T1, Plk-1 PBD (residues 326-603) (Homo sapiens, UniProt P53350); assay: Isothermal titration calorimetry of peptides with Plk-1 PBD; conditions: for peptide binding to Plk-1 PBD by ITC (in words): no detectable binding for a Plk1 PBD concentration of at least 150 μM
T1 construct: sample cell containing 15 μM Plk-1 PBD (residues 326-603); GST (N, cleaved yes); made in house; host or cells: E. coli BL21
Description: For deletion mapping of the PBD, C-terminal fragments of Plk-1 were generated by PCR and cloned into the EcoRI and XhoI sites of pcDNA3.1 (Invitrogen). For production of recombinant PBD as a GST fusion in bacteria, the 326-603 fragment of Plk-1 was ligated into the EcoRI and XhoI sites of pGEX-4T (Pharmacia), transformed into BL21, and induced in late log-phase cells at 37° C. for 3.5 hours in the presence of 0.4 mM IPTG. For measurements of peptide binding affinity by ITC, GST-Plk-1 (326-603) was isolated from bacterial lysates using glutathione agarose, cleaved from GST using thrombin (10 U/mL), and purified by anion exchange chromatography (Q Sepharose HP, Pharmacia).
Peptides were synthesized by solid phase technique with two C-terminal lysines to enhance solubility, purified by reverse phase HPLC following deprotection, and confirmed by MALDI-TOF 9 Matrix-assisted laser desorption/ionisation-time of flight mass spectrometry. Some peptides contained an additional tyrosine residue to facilitate concentration determination by optical absorbance. calorimetry measurements were performed using a VP-ITC microcalorimeter (MicroCal Inc., Studio City, Calif.). Experiments involved 10 μL injections of peptide solutions (150 μM-180 μM) into a sample cell containing 15 μM Plk-1 PBD (residues 326-603) in 50 mM Tris/HCl (pH 8.1), 200 mM NaCl, 2 mM TCEP. Thirty injections were performed with a spacing of 240 s and a reference power of 25 μCal/s. Binding isotherms were plotted and analyzed using Origin Software (MicroCal Inc. Studio City, Calif.).
Peptides were synthesized by solid phase technique with two C-terminal lysines to enhance solubility. Some peptides contained an additional tyrosine residue to facilitate concentration determination by optical absorbance. Isothermal titration calorimetry was performed using a VP-ITC microcalorimeter (MicroCal Inc. Studio City, Calif.) by titration of 15-40 μM solutions of PBD proteins with 30×10 μl injections of […] peptide in a starting volume of 1.4-2.0 ml. Binding isotherms were plotted and analyzed using Origin Software (MicroCal Inc. Studio City, Calif.). Binding of in vitro translated Plk1 PBD (wild type and mutants) to bead-immobilized pTP and TP peptide libraries was performed as described previously (Elia et al., Science 299:1228-1231, 2003). pTP and TP indicate the peptide libraries biotin-Z-Gly-Z-Gly-Gly-Ala-X-X-B-X-pThr-Pro-X-X-X-X-Ala-Lys-Lys-Lys SEQ ID NO: 30 biotin-Z-Gly-Z-Gly-Gly-Ala-X-X-B-X-Thr-Pro-X-X-X-X-Ala-Lys-Lys-Lys SEQ ID NO: 31, respectively, where pThr is phosphothreonine, Z is aminohexanoic acid, X denotes all amino acids except Cys, and B is a biased mixture of the amino acids P, L, I, V, F, M, W.

[2] = target: T2, GST-PTIP BRCT domains (residues 550-757) (Homo sapiens, UniProt Q6ZW49); assay: Isothermal titration calorimetry of peptides with PTIP tandem BRCT domains; conditions: for Kd: ITC, PTIP (BRCT)2 domain
T2 construct: 15 μM GST-PTIP BRCT domains (residues 550-757); made in house; host or cells: E. coli DH5a
Description: (§1) For deletion mapping of the PTIP and BRCA1 BRCT phospho-binding region and for expression of MDC 1, 53BP1 and Rad9 (FIG. 17-18), fragments were generated by PCR for in vitro transcription/translation and cloned into a pcDNA3.1 expression vector (Invitrogen, San Diego, Calif.). For production of recombinant GST-PTIP BRCT domains and GSTBRCA1 BRCT domains, residues 550-757 of PTIP and residues 1634-1863 of BRCA1 were ligated into the EcoRI and NotI sites of pGEX-4T1 (Pharmacia, Peapack, N.J.) and subsequently transformed into DH5a E. Coli. Protein induction occurred at 37° C. for 4 hours or at 25° C. for 16 hours in the presence of 0.4 mM IPTG. For peptide filter blot analysis and measurements of peptide binding affinity by ITC, GSTPTIP BRCT domains (residues 550-757) and GST-BRCA1 BRCT domains (residues 1634-1863) were isolated from bacterial lysates using glutathione agarose, eluted with 40 mM glutathione, and dialyzed into 50 mM Tris/HCl (pH 8.1), 300 mM NaCl. The GFP-PTIP constructs FL (residues 1-757), !BRCT (residues 1-550), or (BRCT)2 (residues 550-757) were cloned into the EcoRI and SalI sites of the pEGFP-C2 (BD Biosciences Clontech Franklin Lakes, N.J.) expression vector.
(§2) Peptides were synthesized by solid phase technique with three C-terminal lysines to enhance solubility. The peptides were then purified by reverse phase HPLC following deprotection and confirmed by MALDI-TOF mass spectrometry. Calorimetry measurements were performed using a VP-ITC microcalorimeter (MicroCal Inc., Studio City, Calif.). Experiments involved serial 10 μL injections of peptide solutions (20 μM-150 μM) into a sample cell containing 15 μM GST-PTIP BRCT domains (residues 550-757) or 15 μM GST-BRCA1 BRCT domains (residues 1634-1863) in 50 mM Tris/HCl (pH 8.1), 300 mM NaCl. Twenty injections were performed with 240 second intervals between injections and a reference power of 25 μCal/s. Binding isotherms were plotted and analyzed using ORIGIN Software (MicroCal Inc. Studio City, Calif.).

[3] = target: T3, GST-BRCA1 BRCT domains (residues 1634-1863) (Homo sapiens, UniProt P38398); assay: Isothermal titration calorimetry of peptides with BRCA1 tandem BRCT domains
T3 construct: 15 μM GST-BRCA1 BRCT domains (residues 1634-1863); made in house; host or cells: E. coli DH5a
Description: as §1, §2

[4] = target: T4, GST-Plk-1 PBD (residues 326-603) interaction with mitotic phosphoproteins (Homo sapiens, UniProt P53350); assay: Peptide competition of GST-Plk-1 PBD pull-down of MPM-2 mitotic phosphoproteins from HeLa lysates; conditions: 320 μM peptide, 45 minutes at 4° C.; nocodazole-arrested HeLa lysates; listed as 7V
T4 construct: GST-Plk-1 (residues 326-603) was immobilized on glutathionine beads; made in house; host or cells: E. coli BL21
Description: HeLa cells were arrested in interphase or G2/M by treatment with aphidicolin (5 μg/mL) or nocodazole (50 ng/mL), respectively, for 16 hours. Cells were lysed in 25 mM Tris/HCl (pH 7.5) containing 125 mM NaCl, 0.5% NP-40, 5 mM EDTA, 2 mM DTT, 4 μg/mL pepstatin, 4 μg/mL aprotinin, 4 μg/mL leupeptin, 1 mM Na3VO4, 50 mM NaF, and […] microcystin, and 150 μgs of lysate incubated with 10 μL of glutathione agarose beads containing 2-5 μg of GST-Plk-1 (residues 326-603), GST-Pin1, or GST for 30 minutes at 4° C. Beads were washed four times with lysis buffer. Precipitated proteins were eluted in sample buffer and detected by blotting with monoclonal MPM-2 (Upstate Biotechnology, Inc.) or polyclonal anti-Cdc25C (Santa Cruz Biotechnology, Santa Cruz, Calif.). For peptide competition experiments, GST-Plk-1 (residues 326-603) was immobilized on glutathionine beads and preincubated with 320 μM of PoloBoxtide-optimal, −8T, or −7V for 45 minutes at 4° C. For binding experiments involving mutant cdc25C, HeLa cells were transfected with wild-type and mutated versions of HA-tagged Cdc25C in pECE using Superfect (Qiagen, Valencia, Calif.). Nocodazole (50 ng/mL) was added seventeen hours after transfection and cells incubated for an additional 14 hours to arrest them in G2/M. Point mutations of Cdc25C were constructed using the QuickChange site-directed mutagenesis system (Stratagene) and verified by DNA sequencing.

T1 sequence (P53350 326-603): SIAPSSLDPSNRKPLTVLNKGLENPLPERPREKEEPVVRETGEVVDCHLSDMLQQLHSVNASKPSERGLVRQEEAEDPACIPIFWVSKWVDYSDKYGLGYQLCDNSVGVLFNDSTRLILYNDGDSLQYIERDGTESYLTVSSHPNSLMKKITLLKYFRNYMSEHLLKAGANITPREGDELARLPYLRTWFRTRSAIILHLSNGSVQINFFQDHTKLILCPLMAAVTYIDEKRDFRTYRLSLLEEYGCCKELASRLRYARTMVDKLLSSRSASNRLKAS
T2 sequence (Q6ZW49 862-1069): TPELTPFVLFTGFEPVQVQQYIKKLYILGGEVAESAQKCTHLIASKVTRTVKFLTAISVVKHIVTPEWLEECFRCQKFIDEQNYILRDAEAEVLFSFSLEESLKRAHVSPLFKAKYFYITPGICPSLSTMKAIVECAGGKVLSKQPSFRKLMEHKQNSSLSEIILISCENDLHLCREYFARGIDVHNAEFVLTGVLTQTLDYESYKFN
T3 sequence (P38398 1634-1863): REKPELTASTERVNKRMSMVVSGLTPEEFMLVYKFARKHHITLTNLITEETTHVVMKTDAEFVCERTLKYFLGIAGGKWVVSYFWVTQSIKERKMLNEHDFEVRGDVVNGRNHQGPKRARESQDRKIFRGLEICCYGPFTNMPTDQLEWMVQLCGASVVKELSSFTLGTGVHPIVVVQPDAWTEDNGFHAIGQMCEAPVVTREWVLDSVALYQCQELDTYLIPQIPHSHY
T4 sequence (P53350 326-603): as the sequence (P53350 326-603) above

peptide binding to Plk-1 PBD by ITC (in words) [1]: abolish Plk1 PBD/peptide binding
Molecule: PoloBoxtide-7C: mutated version of the optimal peptide, Cys at pT-1 (SEQ ID NO:70) (MAGPMQC[pT]PLNGAYKK)

Kd (N.D.B.) ([2]; PTIP, N.D.B = no detectable binding by ITC, tandem BRCT domain concentration of at least 150 μM): N.D.B. | Kd (N.D.B.) ([3]; BRCA1, N.D.B = no detectable binding by ITC, tandem BRCT domain concentration of at least 150 μM): N.D.B.
Molecule: GAAYDISQVFPFAKKK [BRCTtide-7S]

Kd [2]: 280 nM | Kd ([3]; ITC, BRCT domains of BRCA1, text, read-out: dissociation constant): 400 nM
Molecule: CC[C@H](C)[C@H](NC(=O)[C@H](CC(=O)O)NC(=O)[C@H](Cc1ccc(O)cc1)NC(=O)[C@H](C)NC(=O)[C@H](C)NC(=O)CN)C(=O)N[C@@H](COP(=O)(O)O)C(=O)N[C@@H](CCC(N)=O)C(=O)N[C@H](C(=O)N[C@@H](Cc1ccccc1)C(=O)N1CCC[C@H]1C(=O)N[C@@H](Cc1ccccc1)C(=O)N[C@@H](C)C(=O)N[C@@H](CCCCN)C(=O)N[C@@H](CCCCN)C(=O)N[C@@H](CCCCN)C(=O)O)C(C)C [BRCTtide-7pS] (H-GAAYDI[pS]QVFPFAKKK-OH; N-terminus and C-terminus assumed)

Molecule: CSCC[C@H](NC(=O)[C@@H]1CCCN1C(=O)CNC(=O)[C@H](C)NC(=O)[C@@H](N)CCSC)C(=O)N[C@@H](CCC(N)=O)C(=O)N[C@@H](CO)C(=O)N[C@H](C(=O)N1CCC[C@H]1C(=O)N[C@@H](CC(C)C)C(=O)N[C@@H](CC(N)=O)C(=O)NCC(=O)N[C@@H](C)C(=O)N[C@@H](CCCCN)C(=O)N[C@@H](CCCCN)C(=O)O)[C@@H](C)OP(=O)(O)O [PoloBoxtide-optimal, MAGPMQ-S-pT-P-LNGAKK] (H-MAGPMQS[pT]PLNGAKK-OH)
Kd [1]: 280 nM

effect of peptide pre-incubation on GST-Plk-1 PBD binding of MPM-2 epitopes [4]: had no effect
Molecule: PoloBoxtide-7V: phosphopeptide whose serine at pThr-1 was mutated to valine (SEQ ID NO:67) (MAGPMQV[pT]PLNGAKK)

peptide binding to Plk-1 PBD by ITC (in words) [1]: abolish Plk1 PBD/peptide binding
Molecule: PoloBoxtide-7T: mutated version of the optimal peptide, Thr at pT-1 (SEQ ID NO:71) (MAGPMQT[pT]PLNGAYKK)

peptide binding to Plk-1 PBD by ITC (in words) [1]: abolish Plk1 PBD/peptide binding
Molecule: PoloBoxtide-7G: mutated version of the optimal peptide, Gly at pT-1 (SEQ ID NO:69) (MAGPMQG[pT]PLNGAYKK)

Kd [2]: 14300 nM
Molecule: CC[C@H](C)[C@H](NC(=O)[C@H](CC(=O)O)NC(=O)[C@H](Cc1ccc(O)cc1)NC(=O)[C@H](C)NC(=O)[C@H](C)NC(=O)CN)C(=O)N[C@H](C(=O)N[C@@H](CCC(N)=O)C(=O)N[C@H](C(=O)N[C@@H](Cc1ccccc1)C(=O)N1CCC[C@H]1C(=O)N[C@@H](Cc1ccccc1)C(=O)N[C@@H](C)C(=O)N[C@@H](CCCCN)C(=O)N[C@@H](CCCCN)C(=O)N[C@@H](CCCCN)C(=O)O)C(C)C)[C@@H](C)OP(=O)(O)O [BRCTtide-7pT] (H-GAAYDI[pT]QVFPFAKKK-OH; N-terminus and C-terminus assumed)

peptide binding to Plk-1 PBD by ITC (in words) [1]: abolish Plk1 PBD/peptide binding
Molecule: PoloBoxtide-7A: mutated version of the optimal peptide, Ala at pT-1 (SEQ ID NO:68) (MAGPMQA[pT]PLNGAYKK)
